Experimental data published in paper PMC11134331, “Cell-active small molecule inhibitors validate the SNM1A DNA repair nuclease as a cancer target” (Chemical Science, 2024).
pIC50: −log10 of the molar value.

What was measured:
solubility = assay type: physicochemical
SNM1A [1] = molecular target: T1, SNM1A (Homo sapiens, UniProt Q6PJP8); assay: real-time fluorescence-based nuclease assay, SNM1A; assay type: biochemical; design: DNA encoding for the MBL and β-CASP domains of SNM1A (aa 676–1040) was cloned into the baculovirus transfer vector pFB-LIC-Bse; inferred from vector pFB-LIC-Bse and the IMAC purification; made in house; host or cells: Sf9 insect cells (baculovirus); conditions: for pIC50: read-out: SNM1A IC50
T1 sequence (Q6PJP8 676-1040): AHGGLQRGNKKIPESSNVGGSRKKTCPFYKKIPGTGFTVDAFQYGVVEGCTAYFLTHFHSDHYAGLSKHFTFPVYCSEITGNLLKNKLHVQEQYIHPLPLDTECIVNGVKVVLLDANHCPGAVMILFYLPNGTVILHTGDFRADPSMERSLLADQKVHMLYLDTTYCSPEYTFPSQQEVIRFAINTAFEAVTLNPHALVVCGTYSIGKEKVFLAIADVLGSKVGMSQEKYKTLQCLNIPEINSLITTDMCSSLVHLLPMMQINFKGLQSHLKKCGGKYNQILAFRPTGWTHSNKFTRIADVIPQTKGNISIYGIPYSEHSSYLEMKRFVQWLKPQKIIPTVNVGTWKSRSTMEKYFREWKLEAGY
Experimental: In brief, the fluorescence-based nuclease assay utilises a chemically modified 20-nucleotide ssDNA substrate with a fluorescein isothiocyanate (FITC) derived 5′-group and an internal black-hole-quencher-1 (BHQ-1), located eight nucleotides distal to the fluorescein group. In the intact substrate the BHQ-1 suppresses fluorescence, however, exonucleolytic digestion of the substrate from the 5′ end by SNM1A uncouples the BHQ-1 and FITC moieties (see Fig. 1D). Spectra were measured every 140 seconds with an increase in fluorescence indicating enzymatic activity by SNM1A (concentration: 0.1 nM).
(§1) Fluorescence-based nuclease digestion SNM1A–C assays were performed as described.[30,45] In the case of SNM1A and SNM1B, a 20-mer oligonucleotide with a 5′ FITC-conjugated-T and an internal BHQ-1 (black hole quencher) conjugated-T, eight nucleotides distal (3′) to the fluor was utilised; whereas for SNM1C a 20-mer oligonucleotide with a 5′ FITC-conjugated-T and a 3′ BHQ-1(black hole quencher) was used to capture all possible endonucleolytic incisions. Reactions (25 μL) were performed in 384 well microplates in nuclease buffer (20 mM HEPES-KOH pH 7.5, 50 mM KCl, 10 mM MgCl2, 0.5 mM TCEP, 0.05% (v/v) Triton-X, 0.1 mg mL^−1 BSA, 5% (v/v) glycerol) with SNM1A/B/C (0.1 nM SNM1A, 0.5 nM SNM1B and 1 nM SNM1C) as indicated. Proteins were incubated for 10 min at RT with the stated compound where applicable, before the reaction was initiated with the addition of 10 nM DNA substrate. […] Fluorescence spectra were measured every 140 s, for 35 min, at 37 °C. The fluorescence intensity of each well was plotted against compound concentration and fitted using a log (inhibitor) response curve using GraphPad Prism software (GraphPad Software, Inc., La Jolla, CA, USA).

SNM1A [2] = molecular target: T1, SNM1A; assay: gel-based nuclease assay, SNM1A; assay type: biochemical; design: DNA encoding for the MBL and β-CASP domains of SNM1A (aa 676–1040) was cloned into the baculovirus transfer vector pFB-LIC-Bse; inferred from vector pFB-LIC-Bse and the IMAC purification; made in house; host or cells: Sf9 insect cells (baculovirus); conditions: 0.5 nM SNM1A
From the text: (§2) To validate the inhibition of SNM1A, SNM1B, and SNM1C observed in the fluorescence-based screening assays, we then performed gel-based assays using 3′ terminally-labelled oligonucleotide substrates that enable both quantitative and qualitative (visual) assessment of the pattern of inhibition, for a subset of compounds. Importantly, whereas the fluorescence-based assay measures a single hydrolytic event at the substrate terminus, the gel-based nuclease assay informs on the pattern of digestion of the entire 51-mer substrate DNA over time.
(§3) Standard exonuclease assays were carried out in a 10 μL final volume containing 20 mM HEPES-KOH, pH 7.5, 50 mM KCl, 0.5 mM TCEP, 10 mM MgCl2, 0.05% (v/v) Triton X-100, 5% (v/v) glycerol, and SNM1 proteins as indicated. Inhibitors were dissolved in DMSO and diluted immediately prior to the reaction in the above buffer. Inhibitors were serially diluted two-fold from 100 μM. The DMSO concentration was kept constant at 0.1% (v/v) in the final reaction mixture. Inhibitors were incubated with the indicated SNM1 enzyme for 10 minutes at room temperature; reactions were initiated by addition of 10 nM DNA substrate and incubated at 37 °C for 20 min. Reactions were quenched by addition of 5 μL stop solution (95% formamide, 10 mM EDTA, 0.25% (v/v) xylene cyanol, 0.25% (v/v) bromophenol blue) and heated at 95 °C for 3 min. Reactions were analysed by 20% denaturing polyacrylamide gel electrophoresis solution of 19 : 1 acrylamide:bis-acrylamide, BioRad and 7 M urea (Sigma Aldrich) in 1 × TBE (Tris-borate EDTA) buffer. Electrophoresis was carried out at 525 V for 75 minutes; gels were subsequently fixed for 60 minutes in a 50% (v/v) methanol, 10% (v/v) acetic acid solution, and dried at 80 °C for two hours under vacuum. Dried gels were exposed to a Kodak Phosphor imager screen and scanned using a Typhoon 9500 instrument (GE Healthcare), scanned images were quantified using ImageJ.

SNM1B = molecular target: T2, SNM1B (Homo sapiens, UniProt Q9H816); assay: gel-based nuclease assay, SNM1B; assay type: biochemical; conditions: 1 nM SNM1B
T2 construct: for the MBL and β-CASP domains of SNM1B (aa 1–335) into baculoviral expression vectors pFB-CT10HF-LIC; made in house; host or cells: Sf9 insect cells (baculovirus)
T2 sequence (Q9H816 1-335): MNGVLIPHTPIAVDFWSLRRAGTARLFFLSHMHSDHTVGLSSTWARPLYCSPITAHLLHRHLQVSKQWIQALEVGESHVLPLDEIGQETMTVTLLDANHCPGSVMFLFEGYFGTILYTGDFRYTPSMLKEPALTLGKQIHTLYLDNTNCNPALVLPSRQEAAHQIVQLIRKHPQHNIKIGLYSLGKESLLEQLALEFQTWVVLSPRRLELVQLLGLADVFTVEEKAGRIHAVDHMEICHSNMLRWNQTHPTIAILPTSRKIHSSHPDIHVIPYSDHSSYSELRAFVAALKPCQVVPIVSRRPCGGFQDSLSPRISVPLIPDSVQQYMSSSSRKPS
From the text: as §2, §3
Suppl. Figure 10. Increasing concentrations (as indicated, in μM) of compounds incubated with 1 nM SNM1B or 2.5 nM SNM1C (room temperature, 10 min), before initiating nuclease reaction by addition of ssDNA (37 °C, 20 min). Products were analysed by 20% denaturing PAGE. Gels are representative versions from a minimum of three independent experimental repeats.
(1 picture or pasted object on this page, not shown here)

[3] = system: U2OS (osteosarcoma) cells; assay: clonogenic survival assay, U2OS cells; assay type: cell-based, human; conditions: for cell death as single agent: U2OS, 50 μM compound
Experimental: Clonogenic assays were performed in 10 cm tissue culture dishes (for RPE-1 cells, U2OS cells and derived clones). Cells (1000 per dish) were seeded in complete media (10 mL) and allowed to attach overnight, then treated with cisplatin or cisplatin plus inhibitor for the times stated. Following treatments, cells were allowed to grow and form colonies for 10 days. Colonies formed were stained with Coomassie R250 (Sigma) and counted on a COLCount Colony Counter (Oxford Optronix). All experiments represent the mean (±SEM) of at least three biological repeats of duplicate dishes/flasks for each treatment.

SNM1C [4] = molecular target: T3, SNM1C (Homo sapiens, UniProt Q96SD1); assay: real-time fluorescence-based nuclease assay, SNM1C; assay type: biochemical
T3 construct: for the MBL and β-CASP domains of SNM1C (aa 1–362) into the baculovirus expression vector pBF-6HZB; made in house; host or cells: Sf9 insect cells (baculovirus)
T3 sequence (Q96SD1 1-362): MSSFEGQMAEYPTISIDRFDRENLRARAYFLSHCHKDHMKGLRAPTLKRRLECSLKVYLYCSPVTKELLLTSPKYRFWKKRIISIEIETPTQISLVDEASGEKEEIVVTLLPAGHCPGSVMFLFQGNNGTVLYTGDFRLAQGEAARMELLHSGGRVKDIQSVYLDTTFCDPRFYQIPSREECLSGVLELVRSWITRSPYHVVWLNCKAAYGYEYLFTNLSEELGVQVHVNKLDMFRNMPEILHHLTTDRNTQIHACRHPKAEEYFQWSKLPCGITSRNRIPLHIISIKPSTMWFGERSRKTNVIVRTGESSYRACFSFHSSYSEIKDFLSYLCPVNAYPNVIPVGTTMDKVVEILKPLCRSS
From the text: There is structural similarity between SNM1A, SNM1B, and SNM1C and major mechanistic features are likely conserved between the three nucleases. We therefore tested (13) and other hydroxamic acid analogues for inhibition of SNM1B and SNM1C. […] Note that the substrate utilised for the high-throughput fluorescence based and subsequent SNM1A and SNM1B assays differed slightly for SNM1C reflecting its (primarily) endonucleolytic, rather than exonucleolytic, activity (ESI Fig. 9 ^†).
as §1

SNM1C [5] = molecular target: T3, SNM1C; assay: gel-based nuclease assay, SNM1C; assay type: biochemical
From the text: as §2, §3
Suppl. Figure 10. […] Products were analysed by 20% denaturing PAGE. […]

[6] = real-time fluorescence-based nuclease assay, resynthesised compounds

Molecule	pIC50 (SNM1A [1]; [6])	other results
O=c1[nH]c2cnc3ccc(Cl)cc3c2[nH]c1=O [compound 2]	5.70	solubility (solubility): poor solubility
COc1cc2c3c(cccc3c1)C(=O)N(O)C2=O [compound 3]	5.54	solubility (solubility): poor solubility
C=CCNc1nc(N[C@@H](CC(C)C)C(=O)OC)c2cc(Cl)ccc2n1 [compound 7]	< 3.00	–
C=CCNc1nc(N[C@@H](CC(C)C)C(N)=O)c2cc(Cl)ccc2n1 [compound 8]	< 3.00	–
C=CCNc1nc(N[C@H](CO)CC(C)C)c2cc(Cl)ccc2n1 [compound 9]	< 3.00	–
C=CCNc1nc(NC(CC(C)C)C(=O)NO)c2cc(Cl)ccc2n1 (stereo not shown) [compound 10]	4.48	increase in SNM1A potency compared to K1 (6) (SNM1A [1]; fluorescence-based assay): 3 fold
C=CCNc1nc(NCC(=O)NO)c2cc(Cl)ccc2n1 [compound 11]	4.77	–
C=CCNc1nc(N[C@H](C)C(=O)NO)c2cc(Cl)ccc2n1 [compound 12]	5.66	inhibition of SNM1A in gel-based assay (SNM1A [2]): good inhibition; inhibition of SNM1B in gel-based assay (SNM1B): good inhibition; effect on cisplatin cytotoxicity ([3]; U2OS wild-type, 50 μM compound 20 hours pre-treatment, 0–15 μM cisplatin): potentiation of cisplatin cytotoxicity; cell death as single agent [3]: ≤ 10%
C=CCNc1nc(N[C@@H](C)C(=O)NO)c2cc(Cl)ccc2n1 [compound 13]	6.10	inhibition of SNM1A in gel-based assay (SNM1A [2]): good inhibition; inhibition of SNM1B in gel-based assay (SNM1B): good inhibition; cell death as single agent [3]: ≤ 10%
C=CCNC(=O)c1nc(N[C@@H](C)C(=O)NO)c2ccccc2n1 [compound 20]	4.08	inhibition of SNM1A in gel-based assay (SNM1A [2]): good inhibition; decrease in SNM1A potency compared to 13 (SNM1A [1]; fluorescence-based assay): 100 fold; inhibition of SNM1B in gel-based assay (SNM1B): good inhibition
CCOc1nc(N[C@@H](C)C(=O)NO)c2cc(Cl)ccc2n1 [compound 21]	4.17	concentration giving complete inhibition of SNM1C digestion (SNM1C [5]): ~6 µM; inhibition of SNM1C in gel-based assay (SNM1C [5]; 2.5 nM SNM1C): clearly inhibits the nuclease activity of SNM1C
AZ1353160 [compound 4, reference compound]	–	SNM1A IC50 (SNM1A [1]; [6]): an IC50 value could not be calculated

More lines, main results first:

pIC50 (SNM1A [1]; [6])	Molecule	other results
5.39	C=CCNc1nc(NC(CO)C(=O)NO)c2cc(Cl)ccc2n1 (stereo not shown) [compound 14]	–
4.38	C[C@H](Nc1nc(N2CCOCC2)nc2ccc(Cl)cc12)C(=O)NO [compound 15]	–
4.47	C[C@H](Nc1nc(NCc2ccccc2)nc2ccc(Cl)cc12)C(=O)NO [compound 16]	pIC50 (SNM1C [4]; real-time fluorescence-based nuclease assay): 5.96
4.70	CCCN(C)c1nc(N[C@@H](C)C(=O)NO)c2cc(Cl)ccc2n1 [compound 17]	–
< 4.00	CCN(CC)c1nc(N[C@@H](C)C(=O)NO)c2cc(Cl)ccc2n1 [compound 18]	selectivity among SNM1A, SNM1B, SNM1C (SNM1C [4]; fluorescence-based assays): only potent against SNM1C
4.96	C[C@H](Nc1nc(N(C)C)nc2ccc(Cl)cc12)C(=O)NO [compound 22]	–
4.89	C[C@H](Nc1nc(N(C)C)nc2ccc(F)cc12)C(=O)NO [compound 23]	–
4.13	COc1ccc2nc(N(C)C)nc(N[C@@H](C)C(=O)NO)c2c1 [compound 24]	–
